Experiments:
Assay in all cases: Mass spectroscopy proteomics, semi-quantitative binding affinity of serum proteins (plaqueproteome, Table 2)
Conditions in all cases: higher number = stronger affinity
[1] = system: Tau plaque particles; design: species or system human
Protocol: For Tau-74 (74-102) (Exon 3/Insert 2 domain) preparation, 1 mg of Tau-74 was suspended in 1 mL of PBS and the sample was incubated at 37° C. for 2 hrs. Similarly for preparing Tau-275 (275-305) (Repeat 2 domain) 1 mg of the peptide was suspended in 1 mL of PBS and the sample was incubated at 37° C. for 2 hrs. After incubation, all the samples were centrifuged for 5 min. at 5000 rpm to remove precipitate, if any, and the supernatant containing oligomers/aggregates were used for in vitro amyloid plaque particles formation assay. For detecting Tau plaque particles, Thioflavin S (Ex/Em=430 nm/550 nm) amyloid binding fluorescent dye (10 μg) was used in the assay.
Next, to isolate Tau plaque particles, as performed for Abeta-42 and Abeta-28 plaque particles isolation, diluted serum samples were used for incubation separately with Tau-45, Tau-74 and Tau-275 oligomers/aggregates. Each assay was performed in 1 mL reaction (800 μL of 50% plasma or serum) and 200 μL (30 μg) of each Tau aggregates and the mixtures were incubated at 37° C. for 1 hr. To the each mixture Thioflavin S dye (120 μg) was added and the sample was incubated for additional 30 min at 37° C. After the incubation, each sample was directly used for sample acquisition using flow cytometer (FACS ARIA II, BD Biosciences, San Jose, Calif.). After initial detection of Tau plaque particles, gates were drawn in the acquisition blot to separately sort and isolate fluorescently labeled Tau plaque particles.
(§1) For preparing trypsin digested peptide sequences, the isolated plaque particles were centrifuged at 10000 rpm for 5 min and the pellet containing plaque particles was resuspended in 100 μl PBS buffer. Stock solutions of digestion buffer (Ammonium Biocarbonate 50 mM), reducing buffer (DDT 100 mM) and alkylation buffer (lodoaceamide 100 mM) were prepared and stored at −20° C. for up to two months. For trypsin digestion, 100 μl of each plaque particles (2000 of Abeta-42, cholesterol, Tau and alpha-synuclein) were precipitated using cold acetone −80° C. by adding 4X's the volume. The samples were placed on dry ice for 10 min with intermittent vortex. Next, the samples were centrifuged at 4° C. at 10000 G for 10 min. Top layer of acetone was carefully removed from the tube with care not to disturb the plaque particles pellet. The samples were speed-vac for 10 min to ensure all acetone has been boiled away. The plaque particles pellet were reconstituted with 15 μl 8M Urea 100 mM Ammonium bicarbonate stock and 20 μl protease max solution. The protease max solution (Promega, Madison, Wis.) was prepared from stock by adding 60 μl 50 mM Ammonium bicarbonate and used for 3 solution digests (20 μl each). […] The tubes were incubated at 55° C. for 30 minutes. The tubes were then removed and brought to the room temperature followed by addition of 3.2 μl of 1M acrylamide and incubated at room temperature for 30 minutes. To the sample, 63 μL of 50 mM Ammonium bicarbonate was added for a final volume of 98 μl and 2 μl of trypsin (10 μg, Trypsin/Lys C Mix). After mixing the solution with pipet the samples were incubated at 37° C. overnight. After the overnight digest, the tryptic digest were quenched and acidified by adding 10 μl of 50% formic acid/water stock dilution. The samples were centrifuged at 10000 G for 2 minutes and purified using stage tip and used for MS/Mass analysis.
(§2) All MS/MS samples were analyzed using Sequest (Thermo Fisher Scientific, San Jose, Calif., USA; version 1.0). Sequest was set up to search the SUMS_uniprot_Human database (35847 entries) assuming the digestion enzyme strict trypsin. Sequest was searched with a fragment ion mass tolerance of 1.00 Da and a parent ion tolerance of 20 PPM. Propionamide of cysteine was specified in Sequest as a fixed modification. Oxidation of methionine and phospho of serine, threonine and tyrosine were specified in Sequest as variable modifications.

[2] = molecular target: T1, alpha-synuclein plaque particles (Homo sapiens, UniProt P37840)
T1 construct: 140 amino acids polypeptide
Protocol: To prepare oligomers/aggregates of human alpha-synuclein (140 amino acids polypeptide), 1 mg of the recombinant alpha-synuclein protein was suspended in 1 mL of PBS and the sample was incubated at 37° C. for 2 hrs. After incubation, all the samples were centrifuged for 5 min. at 5000 rpm to remove precipitate, if any, and the supernatant containing oligomers/aggregates were used in vitro plaque particles formation assay. For detecting alpha-synuclein plaque particles Thioflavin S (Ex/Em=430 nm/550 nm) amyloid binding fluorescent dye (10 μg) was used.
Similarly, to isolate alpha-synuclein plaque particles, diluted plasma or serum samples obtained from AD subjects were used for incubation with alpha-synuclein plaque oligomers/aggregates. Each assay was performed in 1 mL reaction (800 μL of 50% plasma or serum) and 200 μL (30 μg) of the alpha-synuclein aggregates and the mixtures were incubated at 37° C. for 1 hr. To the mixture Thioflavin S dye (120 μg) was added and the sample was incubated for additional 30 min at 37° C. After the incubation, the mixture was directly used for sample acquisition using flow cytometer (FACS ARIA II, BD Biosciences, San Jose, Calif.). After initial detection of alpha-synuclein plaque particles, gates were drawn in the acquisition blot to separately sort and isolate fluorescently labeled alpha-synuclein particles.
as §1, §2
Scaffold (version Scaffold_4.2.1, Proteome Software Inc., Portland, Oreg.) was used to validate MS/MS based peptide and protein identifications.

[3] = molecular target: T2, Abeta-42 plaque particles (Homo sapiens, UniProt P05067)
T2 construct: Abeta 1-42
Protocol: Next to isolate serum derived Abeta-42 plaque particles, the plasma or serum samples obtained from AD subjects were first centrifuged at 5,000 rpm for 5 min and the supernatants were transferred to new centrifuge tubes. Next, the supernatants were diluted in PBS to make 50% of the serum and plasma samples and used for incubation with Abeta-42 plaque oligomers/aggregates. Each assay was performed in 1 mL reaction (800 μL of 50% plasma or serum) and 200 μL (30 μg) of the Abeta-42 aggregates and the mixtures were incubated at 37° C. for 1 hr. To the mixture Thioflavin S dye (120 μg) was added and the sample was incubated for additional 30 min at 37° C. After the incubation, the mixture was directly used for sample acquisition using flow cytometer (FACS ARIA II, BD Biosciences, San Jose, Calif.). After initial detection of Abeta-42 plaque particles in the acquisition blot, gates were drawn in fluorescent dot blot to separately sort and isolate fluorescently labeled Abeta-42 particles.
as §1, §2
Scaffold (version Scaffold_4.2.1, Proteome Software Inc., Portland, Oreg.) was used to validate MS/MS based peptide and protein identifications. […] Protein probabilities were assigned by the Protein Prophet algorithm (Nesvizhskii, Al et al 2003). […] Proteins sharing significant peptide evidence were grouped into clusters. Proteins were annotated with GO terms from NCBI (downloaded Jan. 17, 2014).

[4] = system: Low density cholesterol (Chl small) plaque particles; design: species or system human
Protocol: (§3) The goal was to isolate plaque particles synthesized in the bio-fluids in a relatively pure form to enable their subsequent use for identification of components that contribute to the plaque formation. In order to isolate cholesterol plaque particles, the plasma or serum samples obtained from atherosclerotic subjects were first centrifuged at 5,000 rpm for 5 min and the supernatants were transferred to new centrifuge tubes. Next, the supernatants were diluted in PBS to make 50% of the serum and used for incubation with cholesterol oligomers/aggregates. Each assay was performed in 1 mL reaction (800 μL of 50% plasma or serum) and 200 μL (30 μg) of the Cholesterol aggregates and the mixtures were incubated at 37° C. for 1 hr After the incubation, the mixture was directly used for sample acquisition using flow cytometer (FACS ARIA II, BD Biosciences, San Jose, Calif.). […] In order to isolate these fractions, three sets of gates were drawn in the acquisition blot to separately sort and isolate High density or high complex cholesterol particles, Low density or low complex cholesterol particles and both High and low density cholesterol particles together.
as §1, §2
(§4) Scaffold (version Scaffold_4.2.1, Proteome Software Inc., Portland, Oreg.) was used to validate MS/MS based peptide and protein identifications. […] Protein probabilities were assigned by the Protein Prophet algorithm (Nesvizhskii, Al et al 2003).

[5] = system: High Density cholesterol (Chl Large) plaque particles; design: species or system human
Protocol: as §3, §1, §2, §4

| Substance | Semi-quantitative analysis of proteins binding to different plaque particles: Tau [1] | Semi-quantitative analysis of proteins binding to different plaque particles: Synuclein [2] | Semi-quantitative analysis of proteins binding to different plaque particles: Abeta-42 [3] | Semi-quantitative analysis of proteins binding to different plaque particles: Chl small [4] | Semi-quantitative analysis of proteins binding to different plaque particles: Chl Large [5] |
| --- | --- | --- | --- | --- | --- |
| Complement C5 | 1 | 4 | 0 | 3 | 5 |
| Tropomyosin alpha-3 chain | 0 | 0 | 5 | 0 | 0 |
| Complement component C8 alpha chain | 0 | 0 | 0 | 2 | 3 |
| Histone H1.2 | 0 | 0 | 2 | 0 | 0 |
| Haptoglobin | 24 | 22 | 23 | 29 | 27 |
| Hemoglobin subunit alpha | 5 | 5 | 2 | 5 | 4 |
| Cluster of Ig kappa chain V-I region HK102 | 1 | 1 | 5 | 1 | 1 |
| Nucleoside diphosphate kinase A | 0 | 4 | 5 | 0 | 0 |
| Myosin-6 | 0 | 0 | 17 | 0 | 0 |
| Ig kappa chain V-I region Ni | 3 | 2 | 5 | 2 | 2 |
| Ig kappa chain V-III region POM | 2 | 0 | 0 | 1 | 1 |
| Apolipoprotein D | 3 | 1 | 0 | 2 | 2 |

— patent US9618524B2, “Method, composition, isolation and identification of a plaque particle and related biomarker” (Plaxgen Inc., priority 2012, dated 2017)
